Measured values: patent publication US8071575B2, “Methods and compounds for the targeted delivery of agents to bone for interaction therewith” (priority 2007, dated 2011)
“Also recorded” adds a separate entry of the source.

Legend:
OVX rats [1] = test: RatLaps ELISA for C-telopeptide fragments of collagen type I (CTX-I) in serum; assay type: in vivo, Sprague-Dawley female rats; details: Formula 125 at 1000 μg/kg, 17-ethinyl estradiol equimolar, alendronate 1.6 mg/kg
Excerpt: RatLaps™ ELISA for C-Telopeptide Fragments of Collagen Type I (CTX-I). […] Bone resorption (CTX-I) was quantitatively assessed in rat serum using the commercially available RatLaps™ ELISA KIT from Nordic Bioscience Diagnostics A/S (Herlev, Denmark) as recommended by the manufacturer.

OVX rats [2] = test: Bone mechanical competence indentation test; assay type: in vivo, Sprague-Dawley female rats; details: for bone strength (indentation test): present-tense example, no data or figure
Procedure: (§1) Animals. Six month old, bilaterally ovariectomized (OVX) or sham operated Sprague-Dawley female rats (Harlan Laboratories, Indianapolis, Ind.) were maintained at the University of Louisville Research Resources Center at 22° C. with a 12-h light/dark cycle and ad libitum access to tap water and rodent chow (Purina Laboratory Rodent Diet 5001). All animal procedures were approved by the Institutional Animal Care and Use Committee, which is certified by the American Association for Accreditation of Laboratory Animal Care.
(§2) In vivo experiments were conducted in order to investigate the efficacy of compounds of the presently-disclosed subject matter. In all of the experiments, OVX and sham operated rats were randomly divided into groups of 5-7 animals. In all of the studies experimental groups included: i) Sham-operated control (euthanized six weeks post surgery as a pretreatment control), ii) OVX control (euthanized six weeks post surgery as a pretreatment control), iii) Sham control receiving vehicle, iv) OVX control receiving vehicle, v) OVX receiving 17-ethinyl estradiol (equimolar concentration with a selected test compound), vi) OVX receiving alendronate (1.6 mg/kg), and vii) OVX receiving parathyroid hormone 1-34 (PTH) ([…]). 17-ethinyl estradiol (17 EE) is a free estrogenic agent known to be orally active, and can serve as an example of an anti-catabolic agent. Alendronate (Alen) is a bisphosphonate that is currently used to treat osteoporosis (e.g., Fosamax®, Merck & Co., Inc,), and can serve as an example of an anti-catabolic agent. Parathyroid hormone 1-34 (PTH) is an agent that can serve as an example of an anabolic agent. All compounds and vehicle (1% DMSO in corn oil) were administered three times per week orally by gavage except for PTH which was administered via a subcutaneous injection in a volume of 0.5 ml/kg body mass thrice per week. Compound administration was initiated 6 weeks following surgery and lasted for 6 weeks (18 doses total).
(§3) Compounds of the presently-disclosed subject matter were orally administered to OVX rats at various doses. As indicated above all BTE's were administered three times per week for 6 weeks.
(§4) Following 6 weeks of treatment, blood was obtained from each animal via cardiac puncture following an overnight fast and animals were subsequently euthanized via carbon dioxide asphyxiation. Blood was centrifuged immediately and the obtained serum samples were aliquoted and stored at −70° C. prior to analysis. Uteri were removed and fresh weights were obtained. Uterine masses were normalized to body mass at the end of the experiment. The left and right femora and left and right tibiae were subsequently collected from each animal, cleaned of soft tissue, and stored in saline at 4° C. prior to analysis.
Bone Mechanical Competence Indentation Test. After sacrifice, the left tibiae were trimmed to expose the cancellous bone of the proximal tibial metaphysis and an indentation test was performed by advancing a flat-tipped cylindrical post (1.5 mm diameter) axially into the cut surface to measure the compressive strength of the cancellous bone structure.

OVX rats [3] = test: Quantitative determination of lipid metabolism (total cholesterol, HDL, LDL) in rat serum; assay type: in vivo, Sprague-Dawley female rats
Procedure: as §1, §2, §4
Quantitative Determination of Lipid Metabolism (Total Cholesterol HDL, and LDL) in Rat Serum. Total cholesterol, high-density lipoprotein (HDL), and low-density lipoprotein (LDL) were quantitatively determined in the serum of rats in order to evaluate the extraosseous effects of estrogen treatment on lipid metabolism. Commercially available kits from Wako Diagnostics (Richmond, Va.) were used for the evaluations as recommended by the manufacturer.

OVX rats [4] = test: Femoral density via Archimedes' Principle (whole bone); assay type: in vivo, Sprague-Dawley female rats; details: for whole bone density and regional bone density: present-tense example, no data or figure
Procedure: as §1, §2, §3, §4
Femoral Density via Archimedes' Principle. Right femora were submerged in distilled water and fully hydrated under a vacuum for 1 hr. Subsequently, the mass of each hydrated femur was obtained in air and when submerged in water. Densities were determined using Archimedes' Principle according to the following formula: density=[mass of hydrated femur/(mass of hydrated femur−mass of hydrated femur submerged in water)]×density of distilled water at a given temperature (See Keenan, et al. Comparison of bone density measurement techniques: DXA and Archimedes' principle. J Bone Miner Res 1997; 12:1903-7.). The obtained density measurements were associated with whole bone.

ICR Swiss mice = test: Stimulation of periosteal bone formation in a mouse calvarial injection model; assay type: in vivo; details: present-tense example, no data or figure
Procedure: Stimulation of Periosteal Bone Formation in a Mouse Calvarial Injection Model. The anabolic (bone formation) of compounds of the presently-disclosed subject matter are evaluated in the mouse calvarial injection model. Briefly, 4-week-old ICR Swiss mice are injected subcutaneously over the surface of the calvariae with compounds of the presently-disclosed subject matter at concentrations of 0, 1, 3, and 10 mg/kg/day for 5 days (twice a day). Microtubule inhibitor TN-16 (5 mg/kg/day for 2 days, twice a day) are used as a positive control. Mice are sacrificed two weeks after the injections are completed. Dissected calvarial samples are fixed in 10% phosphate-buffered formalin for 2 days, decalcified in 10% EDTA for 2 weeks and then embedded in paraffin. Histological sections are cut and stained with H&E and orange G. New woven bone formation (new bone area) is quantified by histomorphometry using the OsteoMeasure system (OsteoMetrics Inc., Atlanta, Ga.).

[5] = Hydroxyapatite (HA) Binding Assay; details: 10^−5 M analyte, 50 mM Tris-HCl pH 7.4, 1% DMSO; adjusted such that tetracycline = 100
Procedure: A Hydroxyapatite (HA) Binding Assay is used to determine whether compounds have an affinity for bone. Compounds of the presently-disclosed subject matter having a Bone Targeting Portion (RT) are studied using the HA Binding Assay. A 10^−3 M solution of each analyte was made in 100% dimethylsulfoxide (DMSO). A 100 fold dilution was then made to form a 10^−5 M solution in 50 mM Tris-HCl buffer, pH 7.4, 1% DMSO. Tetracycline was used as a reference analyte and approximately 50% was adsorbed to HA at the concentration of 10^−5 M. The HA slurry was 0.5 g/100 mL 50 mM Tris-HCl buffer, 1% DMSO.
For each analyte, two samples were prepared. For one sample, 1 mL of 10^−5 M analyte and 100 μL 50 mM Tris-HCl buffer, 1% DMSO was pipetted into a microcentrifuge tube. For the second sample, 1 mL of 10^−5 M analyte and 100 μL of the HA slurry was pipetted into a microcentrifuge tube. The samples were mixed gently by inversion for 4 minutes and then centrifuged at 12,000 g for 3 minutes to sediment the HA contained in those samples. The supernatant was transferred to another microcentrifuge tube.
An electronic spectral scan (ultraviolet-visible) from 220-520 nm was obtained for each analyte using a Varian Cary 300 Bio Scan. The blank was 50 mM Tris-HCl buffer, 1% DMSO. The wavelength of maximum absorbance (λmax) was determined, and the extinction coefficient (ε) was calculated using the Beer-Lambert Law.
The absorbance of the samples incubated with HA was measured at λmax, and the molar concentration of the analyte was then determined using the Beer-Lambert Law and the previously calculated extinction coefficient. The fraction adsorbed to HA for each sample was subsequently calculated.

OVX rats [6] = test: Uterine mass and uterine mass to body weight ratio in OVX rats; assay type: in vivo, Sprague-Dawley female rats; details: for uterine mass: present-tense example, no data or figure
Procedure: as §1, §2, §3, §4
Uterine Mass and Body Weight. […] Uterine mass can be used to as a measure of estrogenic effect occurring in a tissue outside the bone in response to treatment with a test compound or composition. Generally, a lower uterine mass can be associated with a decreased risk of adverse side effects associated with the test compound or composition. A ratio of uterine mass to body weight can be used to correct for any increase in uterine size attributable to the relative size of the individual animal. Body weight and/or uterine mass also serve as an indirect measures of toxicity of a test compound.

OVX rats [7] = test: Volume fraction, ex vivo micro-computed tomography of tibia; assay type: in vivo, Sprague-Dawley female rats; details: for volume fraction (BV/TV) of trabecular, cortical and whole bone tissue: present-tense example, no data or figure; for bone density from three-dimensional micro-CT images / trabecular volume fraction: OVX rats, oral 10, 100, or 1000 μg/kg; for trabecular volume fraction: ex vivo micro-CT
Procedure: as §1, §2, §3, §4
Volume Fraction—Ex vivo micro-computed tomography (μCT). Volume fraction is a representative value for the amount of bone that occupies a given volume or space. High resolution image data were collected using a customized micro-CT system (ACTIS 150/225 system, BIR Inc., Lincolnshire, Ill.). The metaphysis of each right tibia was scanned over a three millimeter range and three-dimensional images were reconstructed. Data were subsequently processed to reveal the volume fraction (BV/TV) occupied by trabecular (cancellous) bone tissue, cortical bone tissue, and whole bone tissue. The resulting data provides information regarding the density of whole bone, cortical bone, and trabecular bone.

OVX rats [8] = test: Regional femoral density via Archimedes' Principle; assay type: in vivo, Sprague-Dawley female rats; details: oral 10, 100, or 1000 μg/kg, three times per week for 6 weeks
Procedure: as §1, §2, §3
Following 6 weeks of treatment, blood was obtained from each animal via cardiac puncture following an overnight fast and animals were subsequently euthanized via carbon dioxide asphyxiation. […]
Regional Femoral Density via Archimedes' Principle. […] Briefly, each femur was measured with a Cen-Tech Digital Caliper and a cut was made from each end at 20% of the length of the femur plus half the width of the blade. Subsequently, the bone marrow was washed out of the femoral diaphysis and the Archimedes density for each of the three femoral regions was determined as described above.

[9] = present-tense example, no data or figure

| Compound | production of CTX-I (bone resorption marker) in serum (OVX rats [1]) | bone strength (indentation test) (OVX rats [2]) | lipid metabolism (total cholesterol, HDL, LDL in serum) (OVX rats [3]; [9]) | whole bone density and regional bone density (OVX rats [4]) | new bone area (calvarial injection model) (ICR Swiss mice) | Binding Index (binding to hydroxyapatite) [5] | uterine mass (OVX rats [6]) | volume fraction (BV/TV) of trabecular, cortical and whole bone tissue (OVX rats [7]) | bone strength (tibial indentation test) (OVX rats [2]; OVX rats, oral 10, 100, or 1000 μg/kg) | lipid metabolism (total cholesterol, HDL, LDL in serum) (OVX rats [3]; rat, in vivo) | regional bone density (left femur) (OVX rats [8]) | whole bone density (right femora) (OVX rats [4]; OVX rats, oral 10, 100, or 1000 μg/kg, three times per week for 6 weeks) | bone density from three-dimensional micro-CT images (OVX rats [7]) | trabecular volume fraction (OVX rats [7]) | ratio of uterine mass to body weight (OVX rats [6]; OVX rats, oral 10, 100, or 1000 μg/kg, compared to animals treated with 17-ethinyl estradiol) |
| --- | --- | --- | --- | --- | --- | --- | --- | --- | --- | --- | --- | --- | --- | --- | --- |
| C#C[C@]1(O)CC[C@H]2[C@@H]3CCc4cc(O)ccc4[C@H]3CC[C@@]21C [17-ethinyl estradiol] | descrease the production of CTX-1 to sham levels | – | – | – | – | – | – | – | – | – | – | – | – | – | – |
| COc1ccc(NC(=O)CCC(=O)Nc2nnc(S(N)(=O)=O)s2)c(O)c1C(N)=O [Formula 35] | – | increase bone strength | limited or no effect | increase bone density | increase new bone area | 20 | limited or no effect | increase bone density | – | – | – | – | – | – | – |
| COc1ccc(NC(=O)COCCOCCOCCNC(=O)CCO[C@@H]2CCC3C4CCc5cc(O)ccc5C4CCC32C)c(O)c1C(N)=O (stereo partly drawn) [Formula 124] | – | – | – | – | increase new bone area | 100 | – | – | dose-responsive increase in bone strength, relative to the OVX animals | limited or no effect | in the same ranges as those animals receiving 17-ethinyl estradiol (17 EE), Alendronate (Alen), or Parathyroid hormone 1-34 (PTH) | in the same ranges as those animals receiving 17-ethinyl estradiol (17 EE), Alendronate (Alen), or Parathyroid hormone 1-34 (PTH) | increase in bone density | in the same ranges as those animals receiving 17-ethinyl estradiol (17 EE), Alendronate (Alen), or Parathyroid hormone 1-34 (PTH) | – |
| CC12CCC3c4ccc(O)cc4CCC3C1CC[C@H]2OCCC(=O)NCCOCCOCC(=O)Nc1ccc(OCc2ccccc2)c(C(N)=O)c1O (stereo partly drawn) [Formula 125] | do not inhibit production of CTX-I | increase bone strength | – | – | increase new bone area | 160 | – | – | – | limited or no effect | increased regional bone densities, as compared to the OVX animals; also recorded: increased regional bone densities, as compared to the Sham animals | – | increase in bone density | increased, as compared to OVX animals | lower |
| COc1ccc(NC(=O)COCCOCCNC(=O)COc2ccc(-c3coc4cc(O)cc(O)c4c3=O)cc2)c(O)c1C(N)=O [Formula 128] | – | increase bone strength | limited or no effect | increase bone density | increase new bone area | – | limited or no effect | increase bone density | – | – | – | – | – | – | – |
| COc1ccc(NC(=O)COCCOCCNC(=O)CCCC(CO[N+](=O)[O-])O[N+](=O)[O-])c(O)c1C(N)=O (stereo not drawn) [Formula 130] | – | increase bone strength | limited or no effect | increase bone density | increase new bone area | 130 | limited or no effect | increase bone density | – | – | – | – | – | – | – |
| NCCCC(O)(P(=O)(O)O)P(=O)(O)O [alendronate] | descrease the production of CTX-1 to sham levels | – | – | – | – | – | – | – | – | – | – | – | – | – | – |
